Assay results: patent US20180289678A1, “PHARMACEUTICAL COMPOSITION, PHARMACEUTICAL DOSAGE FORM, PROCESS FOR THEIR PREPARATION, METHODS FOR TREATING AND USES THEREOF” (Boehringer Ingelheim International GmbH, priority 2009, published 2018)
Like-named read-outs stand apart in the source and are kept apart here.

What was measured:
[1] = system: Zucker Diabetic Fatty (ZDF) rats; assay: Oral glucose tolerance test in ZDF rats; type: in vivo, rat; conditions: oral glucose load
Description: According to a first example an oral glucose tolerance test is performed in overnight fasted 9-weeks old male Zucker Diabetic Fatty (ZDF) rats (ZDF/Crl-Lepr^fa). A pre-dose blood sample is obtained by tail bleed. Blood glucose is measured with a glucometer, and the animals are randomized for blood glucose (n=5/group). Subsequently, the groups receive a single oral administration of either vehicle alone (0.5% aqueous hydroxyethylcellulose containing 3 mM HCl and 0.015% Polysorbat 80) or vehicle containing the SGLT2 inhibitor. The animals receive an oral glucose load (2 g/kg) 30 min after compound administration. Blood glucose is measured in tail blood 30 min, 60 min, 90 min, 120 min, and 180 min after the glucose challenge. Glucose excursion is quantified by calculating the reactive glucose AUC. The data are presented as mean ±SEM. The two-sided unpaired Student t-test is used for statistical comparison of the control group and the active groups.
Compound (I.9) (1-chloro-4-(β-D-glucopyranos-1-yl)-2-[4-((S)-tetrahydrofuran-3-yloxy)-benzyl]-benzene) was orally administered to ZDF rats at doses of 0.3 mg/kg, 3 mg/kg or 30 mg/kg body weight. Compound (I.9) reduced glucose excursion by 15% at 0.3 mg/kg (not significant), by 62% at 3 mg/kg (p<0.001) and by 89% at 30 mg/kg (p<0.001).

[2] = Study .3: single dose, cross-over, food effect study in healthy volunteers, pharmacokinetic parameters; type: in vivo, human; conditions: 50 mg single dose
Description: 5. Pharmacokinetic Parameters
The pharmacokinetic parameters of pharmaceutical compositions and pharmaceutical dosage forms are assessed in healthy volunteer and patient populations. In the studies shown below, the participants fasted on the day of sampling, unless as otherwise stated (see for example study .3). The active substance in the studies below is the compound (I.9), preferably in the crystalline form (I.9X), and the dose of active ingredient is indicated in mg.
For the quantification of plasma concentrations of the active ingredient, 2.7 mL of blood was collected and transferred into an EDTA (ethylendiaminetetraacetic acid)-anticoagulant blood drawing tube. The EDTA-anticoagulated blood samples were centrifuged immediately after collection. Centrifugation lasted for about 10 minutes (at about 2,000×gf to 4,000×gf) at 4-8° C. or within 30 minutes while stored on ice. Concentrations of active substance in EDTA human plasma samples were quantitated using a HPLC/MS/MS method. The assay method comprised a solid phase supported liquid-liquid extraction of human plasma coupled with HPLC/MS/MS determination of the extracted samples. The HPLC/MS/MS assay was validated for the range of 1.11 to 1110 nM in human plasma.
Study .3: Single dose, cross-over, food effect study in a healthy volunteer population of N=14. Healthy volunteers were administered tablets as described in Example 10 (section Examples of formulations).
AUC0-inf:area under the concentration-time curve of the analyte in plasma over the time interval from 0 extrapolated to infinity.
Cmax: maximum concentration of the analyte in plasma.
Tmax: time from dosing to maximum concentration.

OC[C@H]1O[C@@H](c2ccc(Cl)c(Cc3ccc(O[C@H]4CCOC4)cc3)c2)[C@H](O)[C@@H](O)[C@@H]1O [Compound (I.9), 1-chloro-4-(β-D-glucopyranos-1-yl)-2-[4-((S)-tetrahydrofuran-3-yloxy)-benzyl]-benzene]
reduced glucose excursion (baseline-corrected glucose AUC) ([1]; 0.3 mg/kg oral, not significant): 15%
reduced glucose excursion (baseline-corrected glucose AUC) ([1]; 3 mg/kg oral, p<0.001): 62%
reduced glucose excursion (baseline-corrected glucose AUC) ([1]; 30 mg/kg oral, p<0.001): 89%
AUC0-inf Max ([2]; Study .3/fasted): 14.1 µM·h
AUC0-inf Min ([2]; Study .3/fasted): 6.45 µM·h
AUC0-inf,norm Max ([2]; Study .3/fasted): 282 nmol·h/L/mg
AUC0-inf,norm Median ([2]; Study .3/fasted): 159 nmol·h/L/mg
AUC0-inf,norm Min ([2]; Study .3/fasted): 129 nmol·h/L/mg
AUC0-inf,norm gMean ([2]; Study .3/fasted): 166 nmol·h/L/mg
Cmax,norm Max ([2]; Study .3/fasted): 40 nmol/L/mg
Cmax,norm Median ([2]; Study .3/fasted): 20 nmol/L/mg
Cmax,norm Min ([2]; Study .3/fasted): 18 nmol/L/mg
Cmax,norm gMean ([2]; Study .3/fasted): 23 nmol/L/mg
tmax Max ([2]; Study .3/fasted): 4.07 h
tmax Min ([2]; Study .3/fasted): 0.750 h
Cmax ([2]; Study .3/fasted, read-out: Cmax Max): 2020 nM
Cmax ([2]; Study .3/fasted, read-out: Cmax Min): 878 nM
AUC0-inf Max ([2]; Study .3/fed): 10.8 µM·h
AUC0-inf Min ([2]; Study .3/fed): 5.06 µM·h
AUC0-inf,norm Max ([2]; Study .3/fed): 216 nmol·h/L/mg
AUC0-inf,norm Median ([2]; Study .3/fed): 150 nmol·h/L/mg
AUC0-inf,norm Min ([2]; Study .3/fed): 101 nmol·h/L/mg
AUC0-inf,norm gMean ([2]; Study .3/fed): 149 nmol·h/L/mg
Cmax,norm Max ([2]; Study .3/fed): 21 nmol/L/mg
Cmax,norm Median ([2]; Study .3/fed): 17 nmol/L/mg
Cmax,norm Min ([2]; Study .3/fed): 9 nmol/L/mg
Cmax,norm gMean ([2]; Study .3/fed): 16 nmol/L/mg
tmax Max ([2]; Study .3/fed): 4.00 h
tmax Min ([2]; Study .3/fed): 1.00 h
Cmax ([2]; Study .3/fed, read-out: Cmax Max): 1070 nM
Cmax ([2]; Study .3/fed, read-out: Cmax Min): 436 nM
AUC(0-inf) ([2]; human, plasma, oral, 50 mg, Study .3/fasted, read-out: AUC0-inf Mean): 8.51 µM·h
AUC(0-inf) ([2]; human, plasma, oral, 50 mg, Study .3/fasted, read-out: AUC0-inf Median): 7.93 µM·h
AUC(0-inf) ([2]; human, plasma, oral, 50 mg, Study .3/fasted, read-out: AUC0-inf gMean): 8.31 µM·h
Cmax ([2]; human, plasma, oral, 50 mg, Study .3/fasted, read-out: Cmax Mean): 1180 nM
Cmax ([2]; human, plasma, oral, 50 mg, Study .3/fasted, read-out: Cmax Median): 1010 nM
Cmax ([2]; human, plasma, oral, 50 mg, Study .3/fasted, read-out: Cmax gMean): 1140 nM
Tmax ([2]; human, plasma, oral, 50 mg, Study .3/fasted, read-out: tmax Mean): 1.53 h
Tmax ([2]; human, plasma, oral, 50 mg, Study .3/fasted, read-out: tmax Median): 1.02 h
Tmax ([2]; human, plasma, oral, 50 mg, Study .3/fasted, read-out: tmax gMean): 1.29 h
AUC(0-inf) ([2]; human, plasma, oral, 50 mg, Study .3/fed, read-out: AUC0-inf Mean): 7.59 µM·h
AUC(0-inf) ([2]; human, plasma, oral, 50 mg, Study .3/fed, read-out: AUC0-inf Median): 7.49 µM·h
AUC(0-inf) ([2]; human, plasma, oral, 50 mg, Study .3/fed, read-out: AUC0-inf gMean): 7.46 µM·h
Cmax ([2]; human, plasma, oral, 50 mg, Study .3/fed, read-out: Cmax Mean): 824 nM
Cmax ([2]; human, plasma, oral, 50 mg, Study .3/fed, read-out: Cmax Median): 830 nM
Cmax ([2]; human, plasma, oral, 50 mg, Study .3/fed, read-out: Cmax gMean): 806 nM
Tmax ([2]; human, plasma, oral, 50 mg, Study .3/fed, read-out: tmax Mean): 2.46 h
Tmax ([2]; human, plasma, oral, 50 mg, Study .3/fed, read-out: tmax Median): 2.48 h
Tmax ([2]; human, plasma, oral, 50 mg, Study .3/fed, read-out: tmax gMean): 2.18 h
